Laboratory results as given in patent publication US5716627A, “Skin care compositions containing fatty acid amides, azoles, and retinol or retinyl ester” (Elizabeth Arden Co., Division of Conopco, Inc., priority 1996, dated 1998).
Entries after “also recorded” stand apart in the source; their conditions may differ. Read-outs that look alike come from different tables or passages of the source.

Experiments:
Human keratinocytes = experiment: 3H-thymidine incorporation by cultured keratinocytes (keratinocyte proliferation); type: cell-based; details: for activation at 0.0025 µM: 2.5×10^-9 M RA
Protocol: Human keratinocytes, isolated from neonatal foreskin by trypsin treatment were grown in Dulbecco Modification Eagle (DME) Hams F12 (1:1) medium/10% fetal calf serum in the presence of irradiated 3T3 mouse fibroblasts for establishing dividing keratinocyte colonies. Cells were grown under the above condition until their second passage and kept frozen for future use. […] On day 7, when the cells were 80-90% confluent, they were trypsinized and plated in the serum-free medium for the various experiments.
The incorporation of ^3 H-thymidine by cultured keratinocytes was used as an assay of keratinocyte proliferation. Thymidine is one of four deoxynucleosides which are the monomeric units of DNA, the universal library of genetic information in the animal kingdom. Prior to cell division of a somatic cell such as a keratinocyte, the complete genome of the cell undergoing cell division is replicated. This involves large scale DNA synthesis by the cell and enables both daughter cells to receive identical copies of the genetic material. When ^3 H-thymidine is included in the culture media of keratinocytes which are synthesizing DNA in preparation for cell division then the labelled nucleoside is incorporated into the newly synthesized DNA. The extent of incorporation of ^3 H-thymidine into a population of cells is proportional to the rate of DNA synthesis by this population of cells and therefore an indication of their cellular proliferation.
Keratinocytes (that were cultured as described above) were plated in 24 well plates at a density of 40,000 cells per well in 1 ml media. After incubation for four days or until the cells were 60-70% confluent, the media was changed. Test compounds were added (in triplicate) to the wells 24 hours after the media change, and four hours later 1 μCi ^3 H-Thymidine in 50 μl media was added per well. Cells were incubated for a further 24 hours. Media was removed from the cells, 10% ice cold trichloroacetic acid (TCA) added and plates were incubated on ice for 30 minutes. Cells were washed five times with 5% TCA and allowed to dissolve in 500 μl 0.1M NaOH for at least one hour (usually overnight). The preparations were neutralized with 0.1M HCl; 50 μl of the cell preparation was used to determine total protein content. Disintegrations per minute (DPM) from ^3 H labelling of DNA was determined by liquid scintillation counting of 900 μl of the cell preparation. Thymidine incorporation results were expressed as DPM/μg protein.

TGase I = experiment: Transglutaminase (TGase I) ELISA in cultured keratinocytes, normalized to DNA content (keratinocyte differentiation); type: cell-based, human; details: for Mean TGase/DNA X 10^-4 ± S.D.: n = 3; for mean TGase/DNA × 10^4 ± s.d: Table 3B
Protocol: Human keratinocytes, isolated from neonatal foreskin by trypsin treatment were grown in Dulbecco Modification Eagle (DME) Hams F12 (1:1) medium/10% fetal calf serum in the presence of irradiated 3T3 mouse fibroblasts for establishing dividing keratinocyte colonies. Cells were grown under the above condition until their second passage and kept frozen for future use. Frozen second passage keratinocytes were thawed and plated into the above medium and grown for five days before they were switched to a serum-free MCDB 153-based medium keratinocyte growth medium (KGM) from Clonetics Corporation, San Diego, Calif., containing 0.15 mM Ca, or keratinocyte serum-free media (KSFM) from GIBCO containing 0.09 mM Ca). On day 7, when the cells were 80-90% confluent, they were trypsinized and plated in the serum-free medium for the various experiments.
During the process of terminal differentiation in the epidermis, a 15 nm thick layer of protein, known as the cornified envelope (CE) is formed on the inner surface of the cell periphery. The CE is composed of numerous distinct proteins which have been cross-linked together by the formation of N^ε -(γ-glutamyl) lysine isodipeptide bonds catalyzed by the action of at least two different transglutaminases (TGases) expressed in the epidermis. TGase I is expressed in abundance in the differentiated layers of the epidermis, especially the granular layer, but is absent in the undifferentiated basal epidermis. Thus TGase I is a useful marker of epidermal keratinocyte differentiation with high TGase I levels indicating a more differentiated state. An ELISA based TGase I assay, using a TGase I antibody, was used to assess the state of differentiation of the cultured keratinocytes in the examples that follow.
Keratinocytes (cultured as described above) were plated in 96 well plates at a density of 3,000 cells per well in 200 μl media. After incubation for four days the media was changed to media containing test compounds (six replicates per test). The cells were cultured for a further 72 hours after which time the media was aspirated and the plates stored at -70° C. Plates were removed from the freezer, and the cells washed with PBS. 100 μl sterile water was added and the cells were freeze fractured by freezing at -70° C. then thawing. The cells were incubated for one hour at room temperature (R/T) with PBS/3% BSA (wash buffer, bovine serum albumin), then rinsed with a fresh aliquot of wash buffer. Cells were incubated with 50 μl of primary antibodies monoclonal anti-human transglutaminase (IgG) obtained from Amersham (mouse) diluted 1:300 in wash buffer for one hour, 37° C. then rinsed two times with wash buffer. Cells were then incubated with 50 μl of secondary antibody (Feb fragment, peroxidase conjugated anti-mouse IgG obtained from Amersham) diluted 1:200 in wash buffer for one hour at 37° C., then rinsed two times with wash buffer. Cells were incubated with substrate solution (4 mg o-phenylene diamine and 3.3 μl 30% H2 O2 in 10 ml 0.1M citrate buffer pH 5.0) for five minutes, R/T, in darkness (under aluminum foil). The reaction was stopped by the addition of 50 μl 4N H2 SO4. The absorbance of samples was read at 492 nm in the plate reader. Out of the six replicates, four were treated with both antibodies, two were treated only with the secondary antibody (i.e., to determine background binding of enzyme conjugated Ab). TGase levels were determined by subtracting background from the readings from each treatment and determining mean ±s.d. for the replicates exposed to both Ab.
The level of TGase-1 detected after treatment of the cells could be influenced by cell number, i.e., the greater the number of cells the greater the level of TGase-1 detected. The level of TGase-1 was normalized to DNA content of the cells in the same well thus eliminating variation due to differences in cell number. […]

[1] = Examples 1-4, overall conclusion

CC1=C(/C=C/C(C)=C/C=C/C(C)=C/C(=O)O)C(C)(C)CCC1 [RA, retinoic acid]
effect on keratinocyte proliferation (in words) (Human keratinocytes; Example 1, 2.5×10^-7 M, 2.5×10^-8 and 2.5×10^-9 M, vs ethanol control and retinol): significantly increased keratinocyte proliferation over both the ethanol control and each of the 2.5×10^-7 M, 2.5×10^-8 M and 2.5×10^-9 M retinol treatments; also recorded: dose dependant manner
effect on keratinocyte proliferation (in words) (Human keratinocytes; [1]): increased keratinocyte proliferation
activity at 0.25 µM (Human keratinocytes; Homo sapiens, Keratinocyte, 24 h, Table 1A, 2.5 × 10^-7 M, 24 hours, read-out: Thymidine incorporation (% control)): 118%
activity at 0.025 µM (Human keratinocytes; Homo sapiens, Keratinocyte, 24 h, Table 1A, 2.5 × 10^-8 M, 24 hours, read-out: Thymidine incorporation (% control)): 128%
activity at 0.0025 µM (Human keratinocytes; Homo sapiens, Keratinocyte, 24 h, Table 1A, 2.5 × 10^-9 M, 24 hours, read-out: Thymidine incorporation (% control)): 122%
activity at 0.0025 µM (Human keratinocytes; Homo sapiens, Keratinocyte, 24 h, Table 2A, 2.5 × 10^-9 M RA or ROH, with 10^-8 M LADEA and/or 10^-9 M Bifonazole where named, 24 hours, read-out: Thymidine incorporation (% control)): 127%
activity at 0.25 µM (Human keratinocytes; Homo sapiens, Keratinocyte, 24 h, Table 3A, RA at 2.5 × 10^7 M [sic], read-out: Thymidine incorporation (% control)): 130%
activation at 0.0025 µM (Human keratinocytes; Homo sapiens, Keratinocyte, read-out: increase in keratinocyte thymidine incorporation / proliferation over the ethanol control, Example 2, or 2.5×10^-9 M retinol+10^-8 M linoleamide-DEA+10^-9 M bifonazole): 27%
activation at 0.25 µM (Human keratinocytes; Homo sapiens, Keratinocyte, read-out: increase in keratinocyte thymidine incorporation / proliferation over the ethanol control, Example 3, 2.5×10^-7 M RA, or 2.5×10^-8 M retinol+10^-8 M linoleamide-DEA+10^-9 M climbazole): 30%
activation at 0.0025 µM (Human keratinocytes; Homo sapiens, Keratinocyte, read-out: increase in keratinocyte thymidine incorporation / proliferation over the ethanol control, Example 4, or 2.5×10^-9 M retinol+10^-8 M linoleamide-MEA+10^-8 M clotrimazole): 28%
mean Thymidine incorp./μg protein ± s.d (Human keratinocytes; Table 1A, 2.5 × 10^-7 M, 24 hours, n = 3): 2475 ± 116 DPM/μg protein
mean Thymidine incorp./μg protein ± s.d (Human keratinocytes; Table 1A, 2.5 × 10^-8 M, 24 hours, n = 3): 2686 ± 72 DPM/μg protein
mean Thymidine incorp./μg protein ± s.d (Human keratinocytes; Table 1A, 2.5 × 10^-9 M, 24 hours, n = 3): 2556 ± 80 DPM/μg protein
mean Thymidine incorp. μg protein ± s.d (Human keratinocytes; Table 2A, 2.5 × 10^-9 M RA or ROH, with 10^-8 M LADEA and/or 10^-9 M Bifonazole where named, 24 hours, n = 3): 5569 ± 248 DPM/μg protein
mean Thymidine incorp/μg protein ± s.d (Human keratinocytes; Table 3A, RA at 2.5 × 10^7 M [sic], n = 3): 4845 ± 95 DPM/μg protein
effect on transglutaminase level / keratinocyte differentiation (in words) (TGase I; Example 1, 2.5×10^-7 M, 2.5×10^-8 M and 2.5×10^-9 M): decreased keratinocyte differentiation over both the ethanol control and each of the retinol treatments; also recorded: dose dependent
effect on keratinocyte TG1 level / differentiation (in words) (TGase I; Example 2, 2.5×10^-8 M RA or retinol, 10^-8 M LAMEA, 10^-8 M bifonazole, 72 hour): very effective at repressing keratinocyte TG1 levels
effect on keratinocyte TG1 level / differentiation (in words) (TGase I; Example 3, 2.5×10^-7 M RA, 2.5×10^-9 M retinol with 10^-8 M LADEA and/or climbazole, 72 hour): very effective at repressing keratinocyte TG1 levels
effect on keratinocyte differentiation (in words) (TGase I; [1]): decreased keratinocyte differentiation
TGase/DNA (% Control) (TGase I; Table 1B, 2.5 × 10^-7 M, 72 hours, 0.25 µM): 7%
Mean TGase/DNA X 10^-4 ± S.D. (TGase I; Table 1B, 2.5 × 10^-7 M, 72 hours): 0.16 ± 0.11 X 10^-4
TGase/DNA (% Control) (TGase I; Table 1B, 2.5 × 10^-8 M, 72 hours, 0.025 µM): 55%
Mean TGase/DNA X 10^-4 ± S.D. (TGase I; Table 1B, 2.5 × 10^-8 M, 72 hours): 1.34 ± 0.40 X 10^-4
TGase/DNA (% Control) (TGase I; Table 1B, 2.5 × 10^-9 M, 72 hours, 0.0025 µM): 77%
Mean TGase/DNA X 10^-4 ± S.D. (TGase I; Table 1B, 2.5 × 10^-9 M, 72 hours): 1.87 ± 0.49 X 10^-4
TGase/DNA (% Control) (TGase I; Table 2B and Example 2B text, 2.5×10^-8 M RA or retinol, 10^-8 M LAMEA, 10^-8 M bifonazole where named, 72 hour): 13%
mean TGase/DNA × 10^-4 ± s.d (TGase I; Table 2B, 2.5 × 10^8 M [sic] RA or ROH, 10^8 M LA-MEA, 10^8 M Bifonazole where named, 72 hour, n = 6): 0.017 ± 0.010 × 10^-4
TGase/DNA (% Control) (TGase I; Table 3B and Example 3B, 2.5×10^-9 M RA or ROH, with 10^-8 M LADEA and/or 10^-8 M climbazole where named, 72 hour): 55%
TGase/DNA (% Control) (TGase I; Table 3B and Example 3B, RA at 2.5×10^-7 M (table: 2.5 × 10^7 M), 72 hour, 0.25 µM): 29%
mean TGase/DNA × 10^4 ± s.d (TGase I; 2.5 × 10^9 M [sic] RA or ROH, with 10^8 M LA-DEA and/or 10^8 M Climbazole where named, 72 hour, n = 6): 0.84 ± 0.59 × 10^4
mean TGase/DNA × 10^4 ± s.d (TGase I; RA at 2.5 × 10^7 M [sic], 72 hour, n = 6): 0.44 ± 0.71 × 10^4
